The nature of the data set: Safety and tolerability of ascending single IV doses in human subjects. The data set is classed as in vivo. From the text:
In each group, subjects received CR665 or placebo.
The condition of each subject was monitored throughout the study.
Subjects were also encouraged to spontaneously report adverse events occurring at any other time during the study. Any adverse events and remedial action required were to be recorded for each subject. The nature, time of onset, duration and severity were documented, together with the Project Physician's opinion of the relationship to drug administration.
The condition of the dosing cannula site for each subject was monitored for erythema, pruritus and swelling at the following times: Pre dose, 0.5, 1, 2 and 24 hours after the start of the infusion. Subjects were also encouraged to spontaneously report adverse events relating to the infusion site at any other time during the study. Any adverse events and observations relating to the infusion site and remedial action required were to be recorded for each subject. The nature, time of onset, duration, and severity were to be documented, together with the Project Physician's opinion of the relationship to drug administration.
Supine and standing blood pressure, supine pulse rate and oral body temperature were measured in duplicate at the following times: Day 1; Pre dose, 15 minutes (Part B only), 30 minutes, 55 minutes, 1.5, 2, 2.5, 3, 4, 8, 12, 24 and 48 hours after the start of the infusion (up to 24 hours only for Groups A1 to A4); and at Follow up visit. Supine vital signs only were measured during the infusion period. Pre dose blood pressure and pulse rate were measured in triplicate at approximately 2 minute intervals. The median value was used as the baseline value in the data analysis. All subsequent measurements were performed singly, but repeated in duplicate if outside the relevant clinical reference ranges. If repeated, the median of the three values were used in the data analysis. Blood pressure and pulse rate were measured using automated Critikon Dinamap™ PRO 400 monitors. Subjects were required to be supine for at least 5 minutes before blood pressure and pulse rate measurements. Standing blood pressure and pulse rate were then measured singly after the subject had been sitting for approximately 1 minute and then standing for approximately 2 minutes. Oral body temperature was measured singly using an Omron digital thermometer. To assess drug effects on cardiovascular function, a 12 lead resting ECG with a 10 second rhythm strip was recorded on a Marquette MAC5000 ECG machine at the following times, after the subject has been supine for at least 5 minutes: Day 1; Pre dose, 50 minutes, 2, 4, 8, 24 and 48 hours after the start of the infusion (up to 24 hours only for Groups A1 to A4); and at the follow up visit. The ECG machine computed the PR, QT and QTc intervals, QRS duration, and heart rate. The QT interval was corrected for heart rate (QTc) using Bazett's formula. For continuous ECG measurements, continuous cardiac Holter monitoring of each subject, using Reynolds Tracker II Holter monitors, was performed from 1 hour prior to until 4 hours after the start of the infusion. Blood and urine samples were collected, after at least a 6 hour fast, for clinical laboratory evaluations at the following times during the study: Pre dose and 24 hours after the start of the infusion; and at the follow up visit.
After collection of urine samples, following removal of the aliquots for drug assay and/or urinalysis, urine was pooled over the following time intervals: 24 to 0 hours and 0 to 24 hours after the start of the infusion. A 10 mL aliquot was removed from the each pooled collection for determination of urinary creatinine.
An assessment of fluid balance (made by comparison of volume of fluid consumed and volume of fluid excreted) was made over the following periods: 24 to 0 hours and 0 to 24 hours after the start of the infusion. During these periods, the volume of fluid consumed and the volume of urine excreted was recorded. […]

Counter-ions that a name gives are not always drawn. Non-standard residues stand in square brackets, D forms with d. Residues, ends and D or L forms follow the SMILES beside them. *: point of attachment. NH(4-picolyl) = c1cc(CN*)ccn1; dNle = CCCC[C@@H](N)C(=O)O

With `CCCC[C@@H](NC(=O)[C@@H](Cc1ccccc1)NC(=O)[C@H](N)Cc1ccccc1)C(=O)N[C@H](CCCNC(=N)N)C(=O)NCc1ccncc1` [CR665, D-phenylalanyl-D-phenylalanyl-D-norleucyl-N-(4-pyridinylmethyl)-D-argininamide, acetate salt] (H-[dF][dF][dNle][dR]-{NH(4-picolyl)}), where the note is “0 to 24 hour after start of infusion”, the “Fluid balance (urine excreted-fluid consumed)” value was “no apparent treatment or dose related trends”. Under “Parts A and B”, the “12-lead ECG evaluations” value is recorded as “no treatment related trends, significant clinical changes, or abnormalities in the morphology of the 12 lead ECG”; the “Creatinine clearance estimated from serum creatinine” value is listed as “no clinically important changes”; the “Supine and standing blood pressure, pulse rate, oral body temperature” value is recorded as “no treatment or dose related trends”. Also, the “Severe or serious adverse events” value (all 54 subjects, all dose levels) was “no severe or serious adverse events”. For the same compound, the “QTc interval (Bazett's and Friedericia's corrected)” value (each dose level, male and female subjects) is recorded as “no evidence of prolongation of QTc interval”. Further, the “CNS symptoms (hallucinations or dysphoria)” value (even at the highest dose levels) is given as “no signs of the more typical CNS symptoms”. Also, for the setting “first 4 hours after start of infusion, each dose level, male and female, Parts A and B”, the “Volume of urine excreted compared to placebo” value is reported as “increase”. Besides, under “human, in vivo”, the “Clinical laboratory evaluations (serum biochemistry, hematology, urinalysis)” value is “no treatment related trends or significant clinical findings” and the Physical examination result is on record as “no treatment related findings”.

(Values after patent publication US8217000B2, “Method for elevating prolactin in mammals” (Cara Therapeutics, Inc., priority 2006, dated 2012).)
